Data on five compounds can be found in paper PMC5402304, “Oxoaporphine Metal Complexes (Co^II, Ni^II, Zn^II) with High Antitumor Activity by Inducing Mitochondria-Mediated Apoptosis and S-phase Arrest in HepG2” (Scientific Reports, 2017).

As usually defined, the IC50 is the concentration at which inhibition is half-maximal. In general, inhibition refers to the percentage by which the read-out fell short of the control.

Where two headings read alike, the source gives them in different places.

The subject of series [1] is BEL-7404. As to conditions: read-out: Antitumor activity: IC50; cited from earlier work.
A further series has as its system A2780. Further details: method as in PMID 20023911. As to conditions: read-out: Antitumor activity: IC50; cited from earlier work.
The next series concerns HT-29. Details: method as in PMID 20023911. As to conditions: read-out: Antitumor activity: IC50; cited from earlier work.
The next series relates to HepG2. Put plainly: MTT cytotoxicity assay, HepG2. The class given is cell-based, human. The conditions noted are these: for inhibitive ratio: HepG2, 20 μmol/L, 48 h; for IC50: HepG2, 48 h, MTT. As to the method: (§1) The in vitro cytotoxicity of OD, 1–3 and the corresponding metal salts were determined by MTT assay towards a panel of human tumor cells including HepG2, T-24, BEL-7404, MGC80-3, SK-OV-3/DDP and normal HL-7702 cells. As the positive control, cisplatin was dissolved at a concentration of 1 mM in 0.154 M NaCl[32].
(§2) The human tumor cell lines (BEL-7404, HepG2, MGC80–3, T-24, SK-OV-3/DDP and HeLa cells) and the human normal liver cell line HL-7702 were obtained from Shanghai Cell Bank in Chinese Academy of Sciences. Cells were cultured in Dulbecco’s modified Eagle’s medium (DMEM) or RPMI-1640 medium, which supplemented with 10% fetal bovine serum (FBS) and 100 U/mL penicillin and streptomycin. Cells were cultured at 37 °C in a humidified atmosphere with 5% CO2/95% air. Tested compounds (2.0 mM) were prepared as DMSO stock solution before they were diluted to working concentrations by PBS buffer (containing 0.5% DMSO), while cisplatin dissolved in 0.9% sodium chloride solution was used as positive controls.
(§3) Cells in their logarithmic phase were seeded in 96-well plates with 5.5 × 10^3/180 μL per well for 24 h. Then 20 μL of compounds at various concentrations were added to each well to achieve final concentrations of 1.25, 2.5, 5.0, 10.0, and 20.0 μM. All the cells were incubated with test compounds for another 48 h before MTT assay. Control wells contained media with 0.5% DMSO. After 48 h of cultivation, 10 μL of MTT (5 mg/mL in PBS) was added to each well, and cells were incubated at 37 °C for 6 h. The contents in the wells were pipetted out carefully, and the formazan crystals formed were dissolved in 100 μL of DMSO, and the absorbance was measured by enzyme labeling instrument with 490 nm/630 nm double wavelength measurement. The IC50 value was defined as a drug concentration killing 50% cells in comparison with untreated controls, which was calculated by the Bliss method (n = 5). All tests were repeated in at least three independent trials.
A general note: Formazan colour is commonly taken as a measure of viable cells.

The next series concerns T-24. The experiment in a line: MTT cytotoxicity assay, T-24. The series is classed as cell-based, human. As to conditions: for inhibitive ratio: T-24, 20 μmol/L, 48 h; for IC50: T-24, 48 h, MTT. As to the method: as §1, §2, §3
The test system of series [2] is BEL-7404. Put plainly: MTT cytotoxicity assay, BEL-7404. The series is classed as cell-based, human. The conditions noted are these: for inhibitive ratio: BEL-7404, 20 μmol/L, 48 h; for IC50: BEL-7404, 48 h, MTT. As for the experimental part: as §1, §2, §3
A further series concerns MGC80-3. The experiment in a line: MTT cytotoxicity assay, MGC80-3. The class given is cell-based, human. As to conditions: for inhibitive ratio: MGC80-3, 20 μmol/L, 48 h; for IC50: MGC80-3, 48 h, MTT. As for the experimental part:
as §1, §2, §3

The subject of the next series is SK-OV-3/DDP. The experiment in a line: MTT cytotoxicity assay, SK-OV-3/DDP. The class given is cell-based, human. The conditions noted are these: for IC50 / inhibitive ratio: 48 h; for IC50: MTT; for inhibitive ratio: SKOV-3/DDP, 20 μmol/L. As for the experimental part: as §1, §2, §3
A further series relates to HL-7702. Put plainly: MTT cytotoxicity assay, normal liver cells HL-7702. The class given is cell-based, human. The conditions noted are these: 48 h; for inhibitive ratio: HL-7702, 20 μmol/L; for IC50: HL-7702 normal liver cells, MTT. As for the experimental part:
as §1, §2, §3

Another series has as its system HepG2 xenograft. The experiment in a line: HepG2 xenograft nude mice model, tumor growth inhibition. The conditions noted are these: 2.0 mg/kg ip every two days. The series is classed as in vivo, BALB/c nude mice.
Series [3] is described as follows: Body weight of mice in the HepG2 xenograft model. The series is classed as in vivo, BALB/c nude mice. As to conditions: 2.0 mg/kg ip every two days; permissible value 20%. As to the method: To further evaluate the in vivo antitumor efficacy of these complexes, 3 was selected to inhibit tumor growth in a HepG2 xenografts model. The mice were randomized into control group, 3-treated groups and positive control group (n = 6). Once the tumor had grown to an average volume of about 100 mm^3, two group of nude mice were injected intraperitoneally (ip) of 3 at a high dose (6.0 mg/kg) and a low (3.0 mg/kg) dose daily for 20 days, respectively. Cisplatin was used as positive control injected at 2.0 mg/kg every two days, while control group received solvents only.
BALB/c nude mice (male, 17–20 g, 5–6 weeks old) were supplied by Guangxi Medical University Laboratory Animal Centre (Guangxi, China, approval no. SCXK 2014–0002 and SYXK 2014–0003). All of the experimental procedures were carried out according to the NIH Guidelines for the Care and Use of Laboratory Animals. Animal experiments were approved by the Animal Care and Use Committee of Guangxi Medical University. Animal were housed at IVC system (individual ventilated caging) with conditions of constant photoperiod (12 h light/12 h dark at 25−28 °C and 45−65% humidity). The xenograft tumor model was established in the same way as we reported before. […]
The tumor volumes and body weight were measured every 3 days, and tumor size was calculated as volume = (w^2l)/2, where w is the width and l is the length in mm of tumor[70]. […]

In series [4] the test system is HepG2, T-24, BEL-7404, MGC80-3, SK-OV-3/DDP. Put plainly: MTT cytotoxicity assay, panel of human tumor cells. The class given is cell-based. The conditions noted are these: 48 h, range over all the tested tumor cells, read-out: inhibition rate. As for the experimental part: as §1, §2
Cells in their logarithmic phase were seeded in 96-well plates with 5.5 × 10^3/180 μL per well for 24 h. […] The contents in the wells were pipetted out carefully, and the formazan crystals formed were dissolved in 100 μL of DMSO, and the absorbance was measured by enzyme labeling instrument with 490 nm/630 nm double wavelength measurement. […]

For series [5], the system named is HepG2 cells. Put plainly: Cell cycle analysis by flow cytometry. The class given is cell-based, human. The conditions noted are these: HepG2, 0.5 and 1.0 μM, 24 h, compared to untreated cells. As to the method:
With the high cytotoxicity in vitro, HepG2 cells were selected to investigate the cell cycle treated with 1–3 (0.125, 0.25 and 0.5 μM) and OD (0.5 and 1.0 μM) for 24 h. […] However, 1–3 induced a significant increase of S-phase cell population in a dose-dependent manner.
Cell cycle progression and apoptosis were determined by flow cytometric analysis. (a) Cell cycle arrest assay: HepG2 cells in their logarithmic phase were plated into 50 mL plates at a final density of 5−6 × 10^6 cells/well overnight, then they were treated with various doses (0.25, 0.5 and 1.0 μM) of 1–3 for another 24 h. Cells were trypsinized, collected, and fixed in ice-cold 75% ethanol at −20 °C overnight. After centrifugation, the fixed cells were rinsed with ice-cold phosphate buffered saline (PBS), and resuspended in 0.5 mL of PBS containing 100 μg/mL RNase, 50 μg/mL propidium iodide (PI) in the dark for 5−10 min. The cell cycle distribution was analyzed by FACS Calibur flow cytometer (BD) and calculated using ModFIT LT software. (b) Apoptosis assay: 1 × 10^5 HepG2 cells were plated in 6-well plates, after incubation for 24 h with complexes 1–3 at 1.0, 2.0 and 5.0 μM, cells were collected, and Apoptosis Detection kit FITC Annexin V was used to analyze the cell apoptosis according to the manufacturer’s instructions.

Series [6] has as its system HepG2 cells. The experiment in a line: Comet assay for DNA damage. Further details: unit not given here. The conditions noted are these: HepG2, 1.0 μM, 24 h. The class given is cell-based, human. As to the method: After the observation of significant S-phase arrest caused by 1–3, the study of DNA damage assay is necessary. The single cell gel electrophoresis technique (comet assay) is a simple, sensitive, reliable, and rapid method to detect DNA damage in eukaryotic cell[39]. As shown in Table 3 and Fig. 6, 1–3 at 1.0 μM induced DNA damage (fragmentation or unwinding) appeared as fluorescent comets with remarkable increase of tails size, especially for 3.
The comet assay is a simple method for measuring DNA strand breaks in cells. The comet assay reagent kit was purchased from Trevigen, and the experiment was carried out according to the manufacturer’s instructions. After treatment with OD and 1–3 at 1.0 μM, HepG2 cells were harvested and suspended at 1 × 10^6 Hep-G2 cells/mL in PBS. The cells suspension was mixed with melted LM agarose at a ratio of 1:10 (v/v). An aliquot (75 μL) of the mixture was immediately pipetted onto the slide (Comet Slide TM). After refrigeration for 30 min, the slide was immersed in pre-chilled lysis solution and left on ice for 60 min, followed by immersing in freshly prepared alkaline solution (300 mM NaOH, 1 mM EDTA, pH > 13) for 60 min on ice in darkness. After DNA unwinding, the slide was subjected to alkaline solution for electrophoresis in a Savant ps 250 system set at 300 mA and 1 volt/cm for 30 min. After electrophoresis, the slide was rinsed with distilled H2O, fixed in 70% ethanol for 5 min and air-dried overnight. DNA was stained with SYBR Green I (Trevigen) and visualized under a fluorescence microscope (Nikon, Eclipse E600).

The test system of the next series is Hep-G2. The conditions noted are these: read-out: Antitumor activity: IC50; cited from earlier work.
In a further series the test system is NCI-H460. The conditions noted are these: read-out: Antitumor activity: IC50; cited from earlier work.
For the next series, the system named is SK-OV-3. Details: method as in PMID 27898051. As to conditions: read-out: Antitumor activity: IC50; cited from earlier work.

As for `O=C1c2ccccc2-c2c3c(cc4ccnc1c24)OCO3.O=C1c2ccccc2-c2c3c(cc4ccnc1c24)OCO3.[Cl][Zn][Cl].[Cl][Zn][Cl]` [Complex C00008], the IC50 in the series with BEL-7404 [1] is 8.4 µM; in the series on A2780 it was 6.7 µM; in the series on HT-29, 5.8 µM.
For the compound `N.N.[Cl][Pt][Cl]` [cisplatin, reference compound], the inhibitive ratio was 71.93±0.83% with HepG2; 75.26±1.00% in the series with T-24; 76.07±2.68% with BEL-7404 [2]; 65.58±0.09% with MGC80-3; 15.13±0.07% with SK-OV-3/DDP; 68.96±1.34% with HL-7702. The IC50 is 7.72 ± 0.83 µM in the series on HepG2; 7.48 ± 0.26 µM in the series with T-24; 10 ± 0.53 µM in the series with BEL-7404 [2]; 16 ± 1.53 µM with MGC80-3; 66 ± 1.53 µM in the series with SK-OV-3/DDP (SK-OV-3/DDP); 5.18 ± 0.68 µM in the series with HL-7702. Also, in the series with HepG2 xenograft, the “IR (tumor weight inhibition rate)” value is recorded as 65.8%. Moreover, in series [3], the “drop in body weight” value came out at 25.8%.
`COc1cc2c(cc1O)C(=O)c1nccc3cc(OC(C)C)c(OC)c-2c13` [OD]: the inhibitive ratio amounted to 33.35±0.32% in the series with HepG2; 46.91±0.17% in the series on T-24; 36.28±0.18% in the series on BEL-7404 [2]; 42.28±0.24% in the series on MGC80-3; 45.57±1.94% in the series with SK-OV-3/DDP; 46.55±0.67% in the series with HL-7702. Also, the IC50 with HepG2 (Homo sapiens) was found to be 8.98 ± 0.76 µM; in the series with T-24 (Homo sapiens), 9.12 ± 0.11 µM; with BEL-7404 [2] (Homo sapiens), 24.8 ± 1.02 µM; in the series on MGC80-3 (Homo sapiens, MGC-803), 23.3 ± 0.88 µM; with SK-OV-3/DDP (Homo sapiens, SK-OV-3/DDP), 38.5 ± 1.42 µM; with HL-7702 (Homo sapiens, L02) it was 9.28 ± 0.43 µM. The “folds higher cytotoxicity than cisplatin” value in the series on SK-OV-3/DDP (SK-OV-3/DDP, ratio of IC50) was 2 folds. Further, the inhibition at 20 µM in series [4] was in the range of 33 to 47%. The “effect on the population of the cell cycle” value with HepG2 cells [5] is on record as “barely change the population of the cell cycle”. The compound also came in with a Comet length in the series with HepG2 cells [6] of 49.45 ± 6.19. In the series with HepG2 cells [6], this compound showed an Olive tail moment of 0.13 ± 0.29. In the series on HepG2 cells [6], this compound showed a Tail length of 1.96 ± 1.78. The Tail moment in the series on HepG2 cells [6] is listed as 0.12 ± 0.21.
`Nc1cccc2c1C(=O)c1cccc3ccnc-2c13.[Cl][Ni][Cl]` [Complex C00005]: the IC50 was 18.2 µM in the series with Hep-G2, 15.6 µM in the series with NCI-H460 and 15 µM in the series with SK-OV-3.
`Nc1c(Cl)ccc2c1-c1nccc3cccc(c13)C2=O.[Cl][Ni][Cl]` [Complex C00006]: the IC50 is 28.8 µM in the series with Hep-G2, 35.2 µM in the series on NCI-H460 and 29.1 µM in the series on SK-OV-3.
